Data reported in patent US11932624B2, “MDM2 degraders and uses thereof” (Kymera Therapeutics, Inc., priority 2020, dated 2024).

Tested on: RS411 cells
Test: Cell Viability CTG Assay (CellTiter Glo) in RS411 cells
Format: cell-based
Settings: Homo sapiens, RS4-11, 24 h, duration 1 day
How it was run: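 Read-out was CellTiter Glo luminescence, taken after 10 min at RT, following 1-4 days of incubation at 37 °C, 5% CO2. Cells were plated at 1000 per well with an 11-point, 3-fold series starting at 10 μM final in 0.2% DMSO. IC50 values are given as letter-code ranges.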

Compound | IC50 [nM]
Cn1c(=O)n(C2CCC(=O)NC2=O)c2ccc(CCC3CCN(CCNC(=O)[C@@H]4NC5(CCCCC5)[C@@]5(C(=O)Nc6cc(Cl)ccc65)[C@H]4c4cccc(Cl)c4F)CC3)cc21 (some centres unmarked) [I-138] | > 1000
Cn1c(=O)n(C2CCC(=O)NC2=O)c2cccc(CN3CCC(OC4CCN(Cc5ccc(NC(=O)[C@@H]6NC7(CCCCC7)[C@@]7(C(=O)Nc8cc(Cl)ccc87)[C@H]6c6cccc(Cl)c6F)cc5)CC4)CC3)c21 (some centres unmarked) [I-139] | < 50
Cn1c(=O)n(C2CCC(=O)NC2=O)c2cccc(C#CC3CCN(C[C@H]4CC[C@H](CNC(=O)[C@@H]5NC6(CCCCC6)[C@@]6(C(=O)Nc7cc(Cl)ccc76)[C@H]5c5cccc(Cl)c5F)CC4)CC3)c21 (some centres unmarked) [I-140] | 500 to 1000
Cn1c(=O)n(C2CCC(=O)NC2=O)c2cccc(CCCN3CCN(CCCNC(=O)[C@@H]4NC5(CCCCC5)[C@@]5(C(=O)Nc6cc(Cl)ccc65)[C@H]4c4cccc(Cl)c4F)CC3)c21 (some centres unmarked) [I-141] | > 1000
O=C1CCN(c2cncc3cc(C#CC4CCN(C[C@H]5CC[C@H](NC(=O)[C@@H]6NC7(CCCCC7)[C@@]7(C(=O)Nc8cc(Cl)ccc87)[C@H]6c6cccc(Cl)c6F)CC5)CC4)ccc23)C(=O)N1 [I-142] | 50 to 100
O=C1CCC(N2Cc3c(C#CC4CCN(C(=O)C56CCC(NC(=O)[C@@H]7NC8(CCCCC8)[C@@]8(C(=O)Nc9cc(Cl)ccc98)[C@H]7c7cccc(Cl)c7F)(CC5)CC6)CC4)cccc3C2=O)C(=O)N1 (some centres unmarked) [I-143] | < 50
O=C1CCN(c2cnc3cc(C4CCN(C(=O)c5ccc(NC(=O)[C@@H]6NC7(CCCCC7)[C@@]7(C(=O)Nc8cc(Cl)ccc87)[C@H]6c6cccc(Cl)c6F)cc5)CC4)ccn23)C(=O)N1 [I-144] | 50 to 100
O=C1CCN(c2cncc3c(C#CC4CCN(C[C@H]5CC[C@H](NC(=O)[C@@H]6NC7(CCCCC7)[C@@]7(C(=O)Nc8cc(Cl)ccc87)[C@H]6c6cccc(Cl)c6F)CC5)CC4)cccc23)C(=O)N1 [I-146] | 100 to 500
Cn1c(=O)n(C2CCC(=O)NC2=O)c2ccc(CCCN3CCN(C[C@H]4CC[C@H](NC(=O)[C@@H]5NC6(CCC(C)(C)CC6)[C@@]6(C(=O)Nc7cc(Cl)ccc76)[C@H]5c5ccnc(Cl)c5F)CC4)CC3)cc21 (some centres unmarked) [I-147] | < 50
Cn1c(=O)n(C2CCC(=O)NC2=O)c2cccc(C#CC3CCN(C[C@H]4CC[C@H](NC(=O)[C@@H]5NC6(CCC(C)(C)CC6)[C@@]6(C(=O)Nc7cc(Cl)ccc76)[C@H]5c5ccnc(Cl)c5F)CC4)CC3)c21 (some centres unmarked) [I-148] | < 50
Cn1c(=O)n(C2CCC(=O)NC2=O)c2ccc(C#CC3CCN(C[C@H]4CC[C@H](NC(=O)[C@@H]5NC6(CCC(C)(C)CC6)[C@@]6(C(=O)Nc7cc(Cl)ccc76)[C@H]5c5ccnc(Cl)c5F)CC4)CC3)cc21 (some centres unmarked) [I-149] | < 50
O=C1CCN(c2cnc3c(C#CC4CCN(C[C@H]5CC[C@H](NC(=O)[C@@H]6NC7(CCCCC7)[C@@]7(C(=O)Nc8cc(Cl)ccc87)[C@H]6c6cccc(Cl)c6F)CC5)CC4)cccn23)C(=O)N1 [I-150] | < 50
Cn1c(=O)n(C2CCC(=O)NC2=O)c2ccc(CCCCCNC(=O)[C@H]3CC[C@H](NC(=O)[C@@H]4NC5(CCC(C)(C)CC5)[C@@]5(C(=O)Nc6cc(Cl)ccc65)[C@H]4c4ccnc(Cl)c4F)CC3)cc21 (some centres unmarked) [I-151] | 100 to 500
Cn1c(=O)n(C2CCC(=O)NC2=O)c2ccc(C(=O)CC3CCN(C[C@H]4CC[C@H](NC(=O)[C@@H]5NC6(CCOCC6)[C@@]6(C(=O)Nc7cc(Cl)ccc76)[C@H]5c5cccc(Cl)c5F)CC4)CC3)cc21 (some centres unmarked) [I-152] | 500 to 1000
Cn1c(=O)n(C2CCC(=O)NC2=O)c2ccc(C#CC3CCN(C[C@H]4CC[C@H](NC(=O)[C@@H]5NC6(CCOCC6)[C@@]6(C(=O)Nc7cc(Cl)ccc76)[C@H]5c5cccc(Cl)c5F)CC4)CC3)cc21 (some centres unmarked) [I-153] | < 50
Cn1c(=O)n(C2CCC(=O)NC2=O)c2ccc(CCN3CC4(CCN(C[C@H]5CC[C@H](NC(=O)[C@@H]6NC7(CCCCC7)[C@@]7(C(=O)Nc8cc(Cl)ccc87)[C@H]6c6cccc(Cl)c6F)CC5)CC4)C3)cc21 (some centres unmarked) [I-154] | < 50
CC1(C)CCC2(CC1)N[C@@H](C(=O)N[C@H]1CC[C@H](CN3CCC(C#Cc4cccn5c(N6CCC(=O)NC6=O)cnc45)CC3)CC1)[C@H](c1ccnc(Cl)c1F)[C@]21C(=O)Nc2cc(Cl)ccc21 [I-155] | < 50
